Reference: US8338568B2, “Chimeric PCSK9 proteins, cells comprising same, and assays using same” (Adaerata, Limited Partnership, priority 2006, dated 2012)
Each block holds one molecule with its values, some of them ahead of it.

Experiments:
Furin = target: T1, Furin (Homo sapiens, UniProt P09958); assay: Cleavability of PCSK9 mutants by Furin in HEK293 cells (pulse-labelling, V5 immunoprecipitation); format: cell-based; conditions: for processing by co-expressed Furin: co-transfection with Furin, FIG. 8; for processing at Arg218 by endogenous Furin: 5 h pulse-labelling, FIG. 9
T1 construct: endogenous in cells; host or cells: HEK293
Method: Twenty four hours following the co-transfection of the PCSK9 natural mutants and each PC or with an empty vector control (pIRES). The cells were labeled with [^35S] [Met+Cys] for 5 h (P5h) and the cell lysates (Cells) and media analyzed as in FIG. 7. The stars point to lanes where either processing occurred (Furin and PC5A) or was inhibited by the presence of the mutation (R^218S with furin). Cleavage sites GTRFHS^218↓QA (SEQ ID NO: 17); GTRLHR^218↓QA (SEQ ID NO: 18);
[Met+Cys] as described in FIG. 7. The star emphasizes the effectiveness of the RRRR218EL (SEQ ID NO: […]) mutant to allow the complete processing of PCSK9 into the PCSK9-ΔN218 form by endogenous Furin. PCSK9 amino acid sequence in the vicinity of position 218 RFHR218QA (SEQ ID NO: 4) (WT); RFHR218EA (SEQ ID NO: 6) (Q219E); RFHR218EL (SEQ ID NO: 7) (QA219,220EL); RRRR218EL (SEQ ID NO: 5);
Was next tested the hypothesis that cleavage at Arg218 is performed by one or more basic amino acid PCs. Accordingly, wild type PCSK9 was co-expressed with all the convertases as well as with β-secretase BACE1 in HEK293 cells. Cells transiently transfected with vectors expressing hPCSK9-V5 and/or the different convertases (as indicated at the top of lanes) were pulse-labeled with ^35S-(Met+Cys) for 4 h and cell extracts (Cells) and media (Media) were immunoprecipitated with a V5 antibody and the precipitates were resolved by SDS/PAGE. […] The N-terminally truncated N2 product is thus referred to as PCSK9-ΔN218 (SEQ ID NO: 32) (PCSK9 lacking the first 218 amino acids; FIG. 5). […] The R218S mutation abrogates the Furin/PC5A cleavage at the sequence RFHR218.
Based on the crystal structure of Furin (Henrich et al., 2003) and the analysis of its many substrates (Seidah and Chretien, 1999), the best substrates of Furin would have the motif RX(R/K)R↓(E/D)L (SEQ ID NO: 115). This led the applicants to produce mutants of PCSK9 that should greatly enhance the ability of Furin to process this molecule. […] Notice the almost absence of prosegment co-immunoprecipitating with the PCSK9-ΔN218 form produced (FIG. 9), which would be predicted since such cleavage would remove the PCSK9 segment 153-218 (SEQ ID NO: 31), which contains the active site Asp^186.

LDLR [1] = assay: Western blot of endogenous LDLR level in HuH7 cells transiently transfected with PCSK9 constructs; format: cell-based, human; conditions: compared to pIRES empty vector, FIG. 10
Excerpt: Cells expressed either full length PCSK9 (FL-PCSK9), namely wild type sequence (WT), mutated R218S, RRRREL (SEQ ID NO: 5) or active site H226A; a truncated PCSK9 construct with the Cys/His rich domain (signal peptide fused to amino acid 455-692 of PCSK9 and ending with a V5 tag) (CHRD) or the empty vector control (pIRES-2). The levels of β-actin was used as control, as well as the level of PCSK9 intracellular proteins produced (detected by a V5-mAb);
Accordingly, the activity on the degradation of LDLR of wild type PCSK9, its R218S mutant, the RRRR218EL (SEQ ID NO: 5) variant, the active site mutant H226A and the Cys/His-rich domain of PCSK9 (aa 454-692 CHRD) was analyzed by Western blots in HuH7 cells (Benjannet et al., 2004) (FIG. 10).

VLDLR [2] = assay: Transgenic mice overexpressing PCSK9-V5 in hepatocytes: VLDLR in skeletal muscle, circulating LDL-cholesterol; format: in vivo, mouse
Method: The transgenic protein was tagged with a V5 at its C-terminus to differentiate it from the endogenous one. […] This is the first evidence that circulating PCSK9 can enhance the degradation of VLDLR in vivo and at distant sites away from those of its synthesis.
Immunohistochemistry of VLDLR (red) in skeletal mouse muscles of control Pcsk9+/+, Pcsk9−/− (Pcsk9 knockout) and transgenic mice (Tg-hPcsk9-V5). The nuclei were stained using TO-PRO-3 (blue; invitrogen). scale: […]; and
A transgenic mice specifically overexpressing PCSK9 in hepatocytes was generated. The transgene was under the control of the ApoE promoter and enhancer regulation. […] The transgenic protein was tagged with a V5 at its c-terminus to differentiate it from the endogenous one. […] Immunofluorescence and Confocal Microscopy analyses of the skeletal mouse muscles were performed using a rabbit polyclonal Ab:VLDLR (a74; 1:200). Immunofluorescence analyses were performed with a Zeiss™ LSM-510 confocal microscope. Confocal immunofluorescence microscopy was performed with a Nikon Eclipse™ TE2000-U laser-scanning microscope with 408, 488, and 543-nm laser lines. Images were processed with Adobe Photoshop™ CS2, version 9.0 (Adobe Systems). […] This is the first evidence that circulating PCSK9 can enhance the degradation of VLDLR in vivo. The decrease level of VLDLR in the transgenic mice overexpressing PCSK9 in the liver was also confirm by immunodetection of PCSK9 in extracts of skeletal muscle (see FIG. 21).

LDLR [3] = assay: Western blot of LDLR level in HEK293 cells co-transfected with LDLR and PCSK9 or PCSK9-TM-CT chimera; format: cell-based, human; conditions: HEK293 cells co-transfected with LDLR; compared to wild type PCSK9; FIG. 4
Method: (§1) Note that NH4Cl allows the rescue from degradation of an intermediate immunoreactive ˜105 kDa form of LDLR that is likely found in endosomes. The pIRES lanes represent the empty vector pIRES-2 either alone or co-transfected with LDLR (as indicated at the bottom of the panel) as controls;
as §1, with “HEK293 cells were transiently transfected with different PCSK9-chimera constructions (Benjannet et al., 2004). […] Cells were either treated (+) or not (−) with 5 mM NH4Cl for 24 h. Note” for “Note”, “controls.” for “controls;”

ApoER2 = assay: Western blot of overexpressed ApoER2 in cells co-transfected with PCSK9 constructs; format: cell-based; conditions: for degradation of ApoER2: overexpressed receptor, transient co-transfection, FIGS. 13 and 14
Excerpt: (§2) The triangle indicates the position in the gel of respectively ApoER2 (first panel), VLDLR (second panel) and LDLR (third panel). […] The PCSK9 Y38F is a mutant where the Tyr-sulfation of the prosegment is eliminated. The intracellular levels of PCSK9 (detected by a specific in-house polyclonal antibody made in rabbits against human PCSK9) are shown in the corresponding cell lysates in the lower panels;
The intracellular levels of PCSK9 (detected by a specific in house antibody against human PCSK9) are shown in the bottom panels;

VLDLR [4] = assay: Western blot of overexpressed VLDLR in CHOK1 cells co-transfected with PCSK9 constructs; format: cell-based; conditions: overexpressed receptor, transient co-transfection; FIG. 13
Excerpt: as §2

LDLR [5] = assay: Western blot of overexpressed LDLR in CHOK1 cells co-transfected with PCSK9 constructs; format: cell-based; conditions: overexpressed receptor, transient co-transfection; FIG. 13
Excerpt: as §2

basic aa-specific PCs = assay: Inhibition of PC processing of overexpressed human PCSK9 in HEK293 cells (pulse-labelling, V5 immunoprecipitation); format: cell-based; conditions: co-expression with PCSK9 in HEK293 cells; FIG. 7
Method: Twenty four hours following the co-transfection of PCSK9 with a PC or with an empty vector control (the pIRES-2 vector from Invitrogen), the cells were labeled with [^35S] [Met+Cys] for 4 h (P4h). The cell lysates (Cells) and media were immunoprecipitated with a V5-mAb and the immunoprecipitates resolved by SDS-PAGE, as described (Seidah et al., 2003). sFurin represents the soluble form of furin lacking the transmembrane-cytosolic tail (Decroly et al., 1996). The stars point to lanes where either processing occurred (with Furin and PC5A) or was inhibited (α1-PDX). From now on, N2 is defined herein as the N-terminal 218 amino acid truncated PCSK9 product (PCSK9-ΔN218). The pIRES lanes represent the empty vector pIRES-2 either alone or co-transfected with PCSK9 (as indicated at the bottom of the panel) as controls;
Was next tested the hypothesis that cleavage at Arg218 is performed by one or more basic amino acid PCs. Accordingly, wild type PCSK9 was co-expressed with all the convertases as well as with β-secretase BACE1 in HEK293 cells. Cells transiently transfected with vectors expressing hPCSK9-V5 and/or the different convertases (as indicated at the top of lanes) were pulse-labeled with ^35S-(Met+Cys) for 4 h and cell extracts (Cells) and media (Media) were immunoprecipitated with a V5 antibody and the precipitates were resolved by SDS/PAGE. […]

T1 sequence (P09958 108-794): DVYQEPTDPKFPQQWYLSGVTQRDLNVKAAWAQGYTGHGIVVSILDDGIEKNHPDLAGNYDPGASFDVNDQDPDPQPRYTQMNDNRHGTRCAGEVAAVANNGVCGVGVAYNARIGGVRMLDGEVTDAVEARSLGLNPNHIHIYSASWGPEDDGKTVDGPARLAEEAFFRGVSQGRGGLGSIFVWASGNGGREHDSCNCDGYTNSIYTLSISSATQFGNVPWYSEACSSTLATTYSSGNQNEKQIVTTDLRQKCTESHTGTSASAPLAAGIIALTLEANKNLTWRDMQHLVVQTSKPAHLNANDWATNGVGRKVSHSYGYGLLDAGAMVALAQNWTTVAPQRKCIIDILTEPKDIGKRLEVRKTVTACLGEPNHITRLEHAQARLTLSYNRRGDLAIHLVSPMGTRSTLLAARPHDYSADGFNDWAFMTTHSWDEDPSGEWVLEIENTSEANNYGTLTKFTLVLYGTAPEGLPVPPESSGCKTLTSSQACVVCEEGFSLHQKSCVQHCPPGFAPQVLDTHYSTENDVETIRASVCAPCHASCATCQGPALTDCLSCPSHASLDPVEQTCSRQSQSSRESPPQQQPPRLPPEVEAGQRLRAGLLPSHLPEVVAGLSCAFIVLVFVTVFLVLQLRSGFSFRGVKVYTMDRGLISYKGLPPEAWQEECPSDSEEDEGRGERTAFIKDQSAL

processing by co-expressed Furin (Furin): cleaves to a lesser extent
Molecule: F216L: natural PCSK9 mutant Phe216-to-Leu, hypercholesterolemia-associated

Molecule: H226A: active site mutant of PCSK9, an inactive enzyme form that remains as zymogen in the ER [reference compound]
activity in enhancing the degradation of the LDLR (LDLR [1]): inactive

Molecule: PCSK9-V5: transgenic PCSK9 tagged with V5 at its C-terminus, overexpressed in mouse hepatocytes
circulating LDL-Cholesterol (VLDLR [2]; transgenic mice overexpressing PCSK9 in hepatocytes): quite elevated | level of VLDLR in skeletal muscle (VLDLR [2]; transgenic mice versus control littermates, immunofluorescence, FIG. 21): dramatically decreased | decrease of VLDLR level in muscle (VLDLR [2]; transgenic mice versus non-transgenic control littermates): at least 3 fold

Molecule: PCSK9-[TM-CT of ACE2]: chimera of full-length human PCSK9 (1-692) fused to the transmembrane and cytosolic domains of ACE2, SEQ ID NO: 27
degradation of LDLR (LDLR [3]): much more effective than the wild type (WT) PCSK9

Molecule: PCSK9-[TM-CT of LDLR]: chimera of full-length human PCSK9 (1-692) indirectly fused to the transmembrane and cytosolic domains of LDLR, SEQ ID NO: 20
degradation of LDLR (LDLR [3]): much more effective than the wild type (WT) PCSK9

Molecule: PCSK9-[TM-CT of Lamp1]: chimera of full-length human PCSK9 (1-692) fused to the transmembrane and cytosolic domains of Lamp1, SEQ ID NO: 24
degradation of LDLR (LDLR [3]): more powerful chimera to enhance the degradation of the LDLR | level of ApoER2 (ApoER2; CHOK1, Neuro2A, HuH7 and HEKL293 cells, FIG. 14): significantly decreased the level of ApoER2 in all cells tested | degradation of ApoER2 (ApoER2): highest efficacy of degradation | degradation of VLDLR (VLDLR [4]): highest efficacy of degradation | degradation of LDLR (LDLR [5]): highest efficacy of degradation

Molecule: PCSK9-ΔN218: C-terminal fragment of the furin/PC5-cleaved PCSK9 (219-692), SEQ ID NO: 32
activity in enhancing the degradation of the LDLR (LDLR [1]): inactive form of PCSK9

processing by co-expressed Furin (Furin): can no longer process
Molecule: R218S: natural PCSK9 mutant Arg218-to-Ser, hypercholesterolemia-associated, Furin/PC5A-resistant
activity in enhancing the degradation of the LDLR (LDLR [1]): active in enhancing the degradation of the LDLR

processing at Arg218 by endogenous Furin (Furin): intermediate Furin-cleavability
Molecule: RFHR218↓EA: PCSK9 mutant with motif RFHR218EA (SEQ ID NO: 6)

processing at Arg218 by endogenous Furin (Furin): intermediate Furin-cleavability
Molecule: RFHR218↓EL: PCSK9 mutant with motif RFHR218EL (SEQ ID NO: 7)

processing at Arg218 by endogenous Furin (Furin): completely process
Molecule: RRRR^218EL: PCSK9 variant with wild type RFHR218QA replaced by optimal Furin-recognition sequence RRRR218EL (SEQ ID NO: 5)
activity in enhancing the degradation of the LDLR (LDLR [1]): inactive

Molecule: wild type PCSK9: human full-length PCSK9 (1-692), SEQ ID NO: 21
activity in enhancing the degradation of the LDLR (LDLR [1]): active in enhancing the degradation of the LDLR | degradation of ApoER2 (ApoER2): degraded | degradation of VLDLR (VLDLR [4]): degraded

Molecule: α1-PDX: modified serpin which inhibits most of the basic aa-specific PCs
inhibition of processing of PCSK9 into PCSK9-ΔN218 (basic aa-specific PCs): completely inhibits such processing into PCSK9-ΔN218

B1: CHRD: truncated PCSK9 construct: signal peptide fused to the Cys/His rich domain (amino acid 455-692) with V5 tag (protein)
chain: LFCRTVWSAHSGPTRMATAVARCAPDEELLSCSSFSRSGKRRGERMEAQGGKLVCRAHNAFGGEGVYAIARCCLLPQANCSVHTAPPAEASMGTRVHCHQQGHVLTGCSSHWEVEDLGTHKPPVLRPRGQPNQCVGHREASIHASCCHAPGLECKVKEHGIPAPQEQVTVACEEGWTLTGCSALPGTSHVLGAYAVDNTCVVRSRDVSTTGSTSEGAVTAVAICCRSRHLAQASQELQ
modifications: left off: small tags and cut ends
notes: truncated PCSK9 construct: signal peptide fused to the Cys/His rich domain (amino acid 455-692) with V5 tag
activity in enhancing the degradation of the LDLR (LDLR [1]): inactive
